Test results taken from patent US20250052744A1, “Dyes and Uses Thereof” (The University of Liverpool, priority 2021, published 2025).
“Also recorded” adds a separate entry of the source.

Experiments:
Experiment in all cases: Qualitative dye staining on agarose pads (EVOS M7000)
Format in all cases: cell-based
Parameters in all cases: key to Relative fluorescent intensity: Very high: If the cells looked twice as big in the fluorescent channel, it was marked as having “very high” relative fluorescent intensity; High: if the cells looked bigger in the fluorescent channel, it was marked as having “high” relative fluorescent intensity; Medium: If the cells looked almost the same size in the fluorescent channel and the bright field, it was marked as having “medium” relative fluorescent intensity; Low: If the cells looked smaller in the fluorescent channel as compared to the brightfield but still the whole cell was visible, it was marked as having “low” relative fluorescent intensity; Negligible: If only a few traces of a cell was visible in the fluorescent channel, it was marked as having “negligible” relative fluorescent intensity
Enterococcus faecium = conditions: DiSC3(5) 3 μM, SYBR Green I 10×, SYTO 13 3 μM, FM4-64 15 μM
Pseudomonas aeruginosa = conditions: DiSC3(5) 3 μM, SYBR Green I 10×, SYTO 13 3 μM, FM4-64 15 μM
Enterococcus spp. = conditions: Table 6 thresholds, Entercoccus, DiSC3(5) 3 μM, SYBR Green I 10×, SYTO 13 3 μM, FM4-64 15 μM
[1] = Table 7 commercial strain Enterococcus faecium NCTC 7171
[2] = Table 7 commercial strain Enterococcus faecium NCTC 13923
[3] = Table 8 sample Enterococcus faecium (011)
[4] = Table 8 sample Enterococcus faecium (012)
[5] = Table 8 sample Enterococcus faecium (013)
[6] = Table 6 thresholds, Pseudomonas aeruginosa
[7] = Table 7 commercial strain Pseudomonas aeruginosa NCTC 10332
[8] = Table 7 commercial strain Pseudomonas aeruginosa NCTC 13715
[9] = Table 8 sample Pseudomonas aeruginosa (031)
[10] = Table 8 sample Pseudomonas aeruginosa (032)
[11] = Table 8 sample Pseudomonas aeruginosa (033)

SMILES: CCCN1C(=CC=CC=Cc2sc3ccccc3[n+]2CCC)Sc2ccccc21.[I-] [DiSC3(5), 3,3′-Dipropylthiadicarbocyanine Iodide]
- Percentage of cells stained (Enterococcus faecium; [1]): Almost all
- Relative fluorescent intensity (Enterococcus faecium; [1]): Low
- Percentage of cells stained (Enterococcus faecium; [2]): Almost all
- Relative fluorescent intensity (Enterococcus faecium; [2]): Low
- Percentage of cells stained (Enterococcus faecium; [3]): Almost all
- Relative fluorescent intensity (Enterococcus faecium; [3]): Low
- Percentage of cells stained (Enterococcus faecium; [4]): Almost all
- Relative fluorescent intensity (Enterococcus faecium; [4]): Low
- Percentage of cells stained (Enterococcus faecium; [5]): Half
- Relative fluorescent intensity (Enterococcus faecium; [5]): Low
- Percentage of cells stained (Pseudomonas aeruginosa; [6]): Few
- Relative fluorescent intensity (Pseudomonas aeruginosa; [6]): no or negligible staining; also recorded: Negligible
- Percentage of cells stained (Pseudomonas aeruginosa; [7]): Few
- Relative fluorescent intensity (Pseudomonas aeruginosa; [7]): Negligible
- Percentage of cells stained (Pseudomonas aeruginosa; [8]): Few
- Relative fluorescent intensity (Pseudomonas aeruginosa; [8]): Negligible
- Percentage of cells stained (Pseudomonas aeruginosa; [9]): Few
- Relative fluorescent intensity (Pseudomonas aeruginosa; [9]): Negligible
- Percentage of cells stained (Pseudomonas aeruginosa; [10]): Few
- Relative fluorescent intensity (Pseudomonas aeruginosa; [10]): Negligible
- Percentage of cells stained (Pseudomonas aeruginosa; [11]): Few
- Relative fluorescent intensity (Pseudomonas aeruginosa; [11]): Negligible
- Percentage of cells stained (Enterococcus spp.): Half
- Relative fluorescent intensity (Enterococcus spp.): low and Low

SMILES: CCN(CC)c1ccc(C=CC=CC=Cc2cc[n+](CCC[N+](CC)(CC)CC)cc2)cc1.[Br-].[Br-] [FM 4-64, N-(3-Triethylammoniumpropyl)-4-(6-(4-(Diethylamino) Phenyl) Hexatrienyl) Pyridinium Dibromide]
- Percentage of cells stained (Enterococcus faecium; [1]): Half
- Relative fluorescent intensity (Enterococcus faecium; [1]): Medium
- Percentage of cells stained (Enterococcus faecium; [2]): Half
- Relative fluorescent intensity (Enterococcus faecium; [2]): Medium
- Percentage of cells stained (Enterococcus faecium; [3]): Half
- Relative fluorescent intensity (Enterococcus faecium; [3]): Medium
- Percentage of cells stained (Enterococcus faecium; [4]): Half
- Relative fluorescent intensity (Enterococcus faecium; [4]): Medium
- Percentage of cells stained (Enterococcus faecium; [5]): Almost all
- Relative fluorescent intensity (Enterococcus faecium; [5]): Medium
- Percentage of cells stained (Pseudomonas aeruginosa; [6]): Almost all
- Relative fluorescent intensity (Pseudomonas aeruginosa; [6]): Low
- Percentage of cells stained (Pseudomonas aeruginosa; [7]): Almost all
- Relative fluorescent intensity (Pseudomonas aeruginosa; [7]): Negligible
- Percentage of cells stained (Pseudomonas aeruginosa; [8]): Almost all
- Relative fluorescent intensity (Pseudomonas aeruginosa; [8]): Low
- Percentage of cells stained (Pseudomonas aeruginosa; [9]): Almost all
- Relative fluorescent intensity (Pseudomonas aeruginosa; [9]): Low
- Percentage of cells stained (Pseudomonas aeruginosa; [10]): Almost all
- Relative fluorescent intensity (Pseudomonas aeruginosa; [10]): Low
- Percentage of cells stained (Pseudomonas aeruginosa; [11]): Almost all
- Relative fluorescent intensity (Pseudomonas aeruginosa; [11]): Low
- Percentage of cells stained (Enterococcus spp.): Almost all
- Relative fluorescent intensity (Enterococcus spp.): medium
- Relative fluorescent intensity (Enterococcus spp.; listed as FM4-64): Medium

SMILES: CCCN(CCCN(C)C)c1cc(/C=C2/Sc3ccccc3N2C)c2ccccc2[n+]1-c1ccccc1 [SYBR Green I, N′,N′-dimethyl-N-[4-[(E)-(3-methyl-1,3-benzothiazol-2-ylidene)methyl]-1-phenylquinolin-1-ium-2-yl]-N-propylpropane-1,3-diamine]
- Percentage of cells stained (Enterococcus faecium; [1]): Almost all
- Relative fluorescent intensity (Enterococcus faecium; [1]): High
- Percentage of cells stained (Enterococcus faecium; [2]): Almost all
- Relative fluorescent intensity (Enterococcus faecium; [2]): High
- Percentage of cells stained (Enterococcus faecium; [3]): Almost all
- Relative fluorescent intensity (Enterococcus faecium; [3]): High
- Percentage of cells stained (Enterococcus faecium; [4]): Almost all
- Relative fluorescent intensity (Enterococcus faecium; [4]): High
- Percentage of cells stained (Enterococcus faecium; [5]): Almost all
- Relative fluorescent intensity (Enterococcus faecium; [5]): High
- Percentage of cells stained (Pseudomonas aeruginosa; [6]): Almost all
- Relative fluorescent intensity (Pseudomonas aeruginosa; [6]): Low
- Percentage of cells stained (Pseudomonas aeruginosa; [7]): Almost all
- Relative fluorescent intensity (Pseudomonas aeruginosa; [7]): Low
- Percentage of cells stained (Pseudomonas aeruginosa; [8]): Almost all
- Relative fluorescent intensity (Pseudomonas aeruginosa; [8]): Low
- Percentage of cells stained (Pseudomonas aeruginosa; [9]): Almost all
- Relative fluorescent intensity (Pseudomonas aeruginosa; [9]): Low
- Percentage of cells stained (Pseudomonas aeruginosa; [10]): Almost all
- Relative fluorescent intensity (Pseudomonas aeruginosa; [10]): Low
- Percentage of cells stained (Pseudomonas aeruginosa; [11]): Almost all
- Relative fluorescent intensity (Pseudomonas aeruginosa; [11]): Low
- Percentage of cells stained (Enterococcus spp.): Almost all
- Relative fluorescent intensity (Enterococcus spp.): medium to high
- Relative fluorescent intensity (Enterococcus spp.; listed as SYBR Green): Medium-High
